This is an account of results in the supplement of paper PMC10307832.

Holding throughout (assay): relative viability (nuclei count vs DMSO), 5 days (fraction); higher = more cells survive
Compound in the test “SGI-1776 + Navitoclax”: CN1CCC(CNc2ccc3ncc(-c4cccc(OC(F)(F)F)c4)n3n2)CC1 [SGI-1776] + CC1(C)CCC(c2ccc(Cl)cc2)=C(CN2CCN(c3ccc(C(=O)NS(=O)(=O)c4ccc(N[C@H](CCN5CCOCC5)CSc5ccccc5)c(S(=O)(=O)C(F)(F)F)c4)cc3)CC2)C1 [Navitoclax] (partner 0.5 µM)
The method, boiled down:
(§1)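 After 5 days of treatment, lung cancer cells in 1536-well plates were fixed and stained in a single step (final 0.05% Triton X-100, 1% formaldehyde, 1 ug/ml Hoechst) and their nuclei counted on 4× images. Treatment had been applied by pin tool the day after seeding as one drug alone or as a fixed anchor-drug dose with five library-drug doses (not always all listed) in √10 steps. Relative viability is the nuclei count of treated wells divided by that of vehicle wells, and values are medians of duplicate plates.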

Compound in the test “Entinostat + Lapatinib”: Nc1ccccc1NC(=O)c1ccc(CNC(=O)OCc2cccnc2)cc1 [Entinostat] + CS(=O)(=O)CCNCc1ccc(-c2ccc3ncnc(Nc4ccc(OCc5cccc(F)c5)c(Cl)c4)c3c2)o1 [Lapatinib] (partner 2 µM)
The method, boiled down: as §1

Compound in the test “Entinostat + Trametinib”: Nc1ccccc1NC(=O)c1ccc(CNC(=O)OCc2cccnc2)cc1 [Entinostat] + CC(=O)Nc1cccc(-n2c(=O)n(C3CC3)c(=O)c3c(Nc4ccc(I)cc4F)n(C)c(=O)c(C)c32)c1 [Trametinib] (partner 0.02 µM)
The procedure, abridged: as §1

Compound in test [1]: C1COCCN1C2=NC(=NC3=C2OC4=C3C=CC=N4)C5=CC(=CC=C5)NC(=O)C6=CN=C(C=C6)N + Cc1cc(Nc2cc(N3CCN(C)CC3)nc(Sc3ccc(NC(=O)C4CC4)cc3)n2)n[nH]1 [Tozasertib] (partner 0.1 µM)
The procedure, abridged:
as §1

As for UMC-11, the relative viability with SGI-1776 + Navitoclax (first compound 0.08 µM) worked out at 0.265; with SGI-1776 + Navitoclax (first compound 0.8 µM), 0.32; with SGI-1776 + Navitoclax (first compound 2.53 µM), 0.275; with SGI-1776 + Navitoclax (first compound 8 µM) it was 0.264; with Entinostat + Lapatinib (first compound 0.02 µM) it was 1.17; with Entinostat + Lapatinib (first compound 0.06325 µM) it was 1.21. Besides, the relative viability in the test with Entinostat + Lapatinib (first compound 0.2 µM) worked out at 1.28; in the test with Entinostat + Lapatinib (first compound 0.6325 µM), 0.222; with Entinostat + Lapatinib (first compound 2 µM) it was 0.173; with Entinostat + Trametinib (first compound 0.02 µM), 0.736; with Entinostat + Trametinib (first compound 0.06325 µM), 0.895; in the test with Entinostat + Trametinib (first compound 0.2 µM), 0.554. Further, the relative viability worked out at 0.163 in the test with Entinostat + Trametinib (first compound 0.6325 µM); 0.142 in the test with Entinostat + Trametinib (first compound 2 µM); 0.205 in test [1] (first compound 0.02 µM); 0.188 in test [1] (first compound 0.06325 µM); 0.193 in test [1] (first compound 0.2 µM); 0.182 in test [1] (first compound 0.6325 µM). Besides, the relative viability in test [1] (first compound 2 µM) was determined as 0.177.
